{"source": "patent US10729130B2", "about": "“Nematicidal compositions and methods of using them” (Eden Research plc, priority 2004, dated 2020)", "format_in_all_cases": "physicochemical", "key": {"[1]": {"test": "Terpene stability: yellow colored oxidation product (colour of encapsulated terpene pellet)", "set-up": "key to Colour: W = white; Y = yellow; sl = slight; int = intermediate; key to Color: White, W; Yellow, Y; Very Yellow, VY", "settings": "for Color: Table 26, scored at 24 hours", "protocol": "Loading reactions were set up as shown in Table 25 and left to incubate overnight. Samples were centrifuged at 14,000×g for 10 minutes and the appearance of free terpene floating on the aqueous layer and the color of the encapsulated terpenes in the pellet was scored. The highest volume of terpene absorbed by particles as evidenced by the absence of free terpene was recorded as the volume of absorbed terpene emulsion. The reactions were incubated for 1, 3, 6, 9 and 24 hours at room temperature or 37° C. After incubation samples were centrifuged at 14,000×g for 10 minutes and the appearance of free terpene floating on the aqueous layer was scored. The highest volume of terpene absorbed by the particles as evidenced by the absence of free terpene was recorded as the volume of absorbed terpene emulsion. Colour of the encapsulated pellet was scored at 24 hours. Increasing volumes of terpene emulsion were mixed with 250 mg/ml Baker's YP or 250 mg/ml SAF Mannan™ overnight at room temperature as shown in Tables 27 and 28. Samples were centrifuged at 14,000×g for 10 minutes and the appearance of free terpene floating on the aqueous layer was scored. The highest volume of terpene emulsion absorbed by Baker's YP or SAF Mannan™ as evidenced by the absence of free terpene was recorded as the volume of absorbed terpene emulsion. Colour of encapsulated terpenes in the pellet was recorded."}, "[2]": {"test": "Maximal citral and L-carvone loading in Baker's yeast particles (free terpene score)", "set-up": "key to Free Terpene: +: “free terpene” refers to the visible presence of terpene in the centrifuged reaction mixture; −: The absence of free terpene indicates complete absorption of the terpene by the particles", "settings": "for Free Terpene: 500 μl 20 mg/ml YP, overnight room temperature", "protocol": "Samples were centrifuged at 14,000×g for 10 minutes and the appearance of free terpene floating on the aqueous layer was scored. The expression “free terpene” refers to the visible presence of terpene in the centrifuged reaction mixture. The absence of free terpene indicates complete absorption of the terpene by the particles. The highest volume of terpene absorbed by the particles, as evidenced by the absence of free terpene, was recorded as the maximal volume of absorbed terpene emulsion."}, "[3]": {"test": "Kinetics of terpene loading into various particles at room temperature or 37° C.", "set-up": "key: +: “free terpene” refers to the visible presence of terpene in the centrifuged reaction mixture; −: The absence of free terpene indicates complete absorption of the terpene by the particles", "protocol": "1% Tween-80 solution was prepared by sonicating 1 ml 10% Tween-80 in 10 ml water. • Baker's YP was prepared by mixing 5 g of bakers YP in 20 ml 1% Tween-80. • Nutrex™ YGP suspension was prepared by mixing 2 g Nutrex™ YGP in 20 ml 1% Tween-80. • SAF Mannan™ suspension was prepared by mixing 2 g SAF Mannan™ in 20 ml 1% Tween-80.\nThe reactions were incubated for 1, 3, 6, 9 and 24 hours at room temperature or 37° C. After incubation samples were centrifuged at 14,000×g for 10 minutes and the appearance of free terpene floating on the aqueous layer was scored. The highest volume of terpene absorbed by the particles as evidenced by the absence of free terpene was recorded as the volume of absorbed terpene emulsion. Colour of the encapsulated pellet was scored at 24 hours."}}, "data": [{"smiles": "CC(C)=CCCC(C)=CC=O", "note": "[Citral, citral]", "values": [{"measurement": "Colour", "setting": "[1]; Table 25, Baker's 250 mg/ml, overnight", "result": "Y"}, {"measurement": "Colour", "setting": "[1]; Table 25, Levacan 217 mg/ml, overnight", "result": "int"}, {"measurement": "Colour", "setting": "[1]; Table 25, Nutrex 163 mg/ml, overnight", "result": "Y"}, {"measurement": "Colour", "setting": "[1]; Table 25, Nutricepts 99 mg/ml, overnight", "result": "Y"}, {"measurement": "Colour", "setting": "[1]; Table 25, SAF Mannan 234 mg/ml, overnight", "result": "W"}, {"measurement": "Colour", "setting": "[1]; Table 25, WGP 121 mg/ml, overnight", "result": "int"}, {"measurement": "Colour", "setting": "[1]; Table 25, no particle, emulsion in 1% Tween 80, overnight", "result": "Y"}, {"measurement": "Color", "setting": "[1]; 37 ° C., Bakers 250 mg/ml", "result": "VY"}, {"measurement": "Color", "setting": "[1]; 37 ° C., Nutrex 100 mg/ml", "result": "VY"}, {"measurement": "Color", "setting": "[1]; 37 ° C., SAF 100 mg/ml", "result": "W"}, {"measurement": "Color", "setting": "[1]; Rt, Bakers 250 mg/ml", "result": "Y"}, {"measurement": "Color", "setting": "[1]; Rt, Nutrex 100 mg/ml", "result": "Y"}, {"measurement": "Color", "setting": "[1]; Rt, SAF 100 mg/ml", "result": "W"}, {"measurement": "Colour", "setting": "[1]; Table 27, Baker's YP, emulsion 15 μl", "result": "Y"}, {"measurement": "Colour", "setting": "[1]; Table 27, Baker's YP, emulsion 37.5 μl", "result": "Y"}, {"measurement": "Colour", "setting": "[1]; Table 27, Baker's YP, emulsion 75 μl", "result": "Y"}, {"measurement": "Colour", "setting": "[1]; Table 27, Baker's YP, emulsion 112.5 μl", "result": "Y"}, {"measurement": "Colour", "setting": "[1]; Table 27, Baker's YP, emulsion 150 μl", "result": "Y"}, {"measurement": "Colour", "setting": "[1]; Table 27, Baker's YP, emulsion 225 μl", "result": "Y"}, {"measurement": "Colour", "setting": "[1]; Table 27, Baker's YP, emulsion 450 μl", "result": "Y"}, {"measurement": "Colour", "setting": "[1]; colour of encapsulated terpene in pellet, SAF Mannan 500 μl, terpene emulsion vol 15", "result": "W"}, {"measurement": "Colour", "setting": "[1]; colour of encapsulated terpene in pellet, SAF Mannan 500 μl, terpene emulsion vol 37.5", "result": "W"}, {"measurement": "Colour", "setting": "[1]; colour of encapsulated terpene in pellet, SAF Mannan 500 μl, terpene emulsion vol 75", "result": "W"}, {"measurement": "Colour", "setting": "[1]; colour of encapsulated terpene in pellet, SAF Mannan 500 μl, terpene emulsion vol 112.5", "result": "W"}, {"measurement": "Colour", "setting": "[1]; colour of encapsulated terpene in pellet, SAF Mannan 500 μl, terpene emulsion vol 150", "result": "W"}, {"measurement": "Colour", "setting": "[1]; colour of encapsulated terpene in pellet, SAF Mannan 500 μl, terpene emulsion vol 225", "result": "W"}, {"measurement": "Colour", "setting": "[1]; colour of encapsulated terpene in pellet, SAF Mannan 500 μl, terpene emulsion vol 450", "result": "W"}, {"measurement": "terpene emulsion absorbed and encapsulated per 10 mg of YP", "setting": "[2]; Baker's YP 20 mg/ml", "result": "at least 5 μl"}, {"measurement": "Free Terpene", "setting": "[2]; emulsion 0.5 μl, 10% Tween-80 500 μl", "result": "−"}, {"measurement": "Free Terpene", "setting": "[2]; emulsion 1.65 μl, 10% Tween-80 500 μl", "result": "−"}, {"measurement": "Free Terpene", "setting": "[2]; emulsion 5 μl, 10% Tween-80 495 μl", "result": "−"}, {"measurement": "Free Terpene", "setting": "[2]; emulsion 50 μl, 10% Tween-80 450 μl", "result": "+"}, {"measurement": "Free Terpene", "setting": "[2]; emulsion 165 μl, 10% Tween-80 335 μl", "result": "+"}, {"measurement": "Free Terpene", "setting": "[2]; emulsion 500 μl, no Tween-80", "result": "+"}, {"measurement": "Free Terpene (hr)", "setting": "[3]; 37 ° C., Bakers 250 mg/ml, emulsion 788 μl L-carvone or 525 μl Citral, 1 hr", "result": "+"}, {"measurement": "Free Terpene (hr)", "setting": "[3]; 37 ° C., Bakers 250 mg/ml, emulsion 788 μl L-carvone or 525 μl Citral, 3 hr", "result": "−"}, {"measurement": "Free Terpene (hr)", "setting": "[3]; 37 ° C., Bakers 250 mg/ml, emulsion 788 μl L-carvone or 525 μl Citral, 6 hr", "result": "−"}, {"measurement": "Free Terpene (hr)", "setting": "[3]; 37 ° C., Bakers 250 mg/ml, emulsion 788 μl L-carvone or 525 μl Citral, 9 hr", "result": "−"}, {"measurement": "Free Terpene (hr)", "setting": "[3]; 37 ° C., Bakers 250 mg/ml, emulsion 788 μl L-carvone or 525 μl Citral, 24 hr", "result": "−"}, {"measurement": "Free Terpene (hr)", "setting": "[3]; 37 ° C., Nutrex 100 mg/ml, emulsion 1050 μl L-carvone or 788 μl Citral, 1 hr", "result": "+"}, {"measurement": "Free Terpene (hr)", "setting": "[3]; 37 ° C., Nutrex 100 mg/ml, emulsion 1050 μl L-carvone or 788 μl Citral, 3 hr", "result": "−"}, {"measurement": "Free Terpene (hr)", "setting": "[3]; 37 ° C., Nutrex 100 mg/ml, emulsion 1050 μl L-carvone or 788 μl Citral, 6 hr", "result": "−"}, {"measurement": "Free Terpene (hr)", "setting": "[3]; 37 ° C., Nutrex 100 mg/ml, emulsion 1050 μl L-carvone or 788 μl Citral, 9 hr", "result": "−"}, {"measurement": "Free Terpene (hr)", "setting": "[3]; 37 ° C., Nutrex 100 mg/ml, emulsion 1050 μl L-carvone or 788 μl Citral, 24 hr", "result": "−"}, {"measurement": "Free Terpene (hr)", "setting": "[3]; 37 ° C., SAF 100 mg/ml, emulsion 1050 μl L-carvone or 788 μl Citral, 1 hr", "result": "+"}, {"measurement": "Free Terpene (hr)", "setting": "[3]; 37 ° C., SAF 100 mg/ml, emulsion 1050 μl L-carvone or 788 μl Citral, 3 hr", "result": "−"}, {"measurement": "Free Terpene (hr)", "setting": "[3]; 37 ° C., SAF 100 mg/ml, emulsion 1050 μl L-carvone or 788 μl Citral, 6 hr", "result": "−"}, {"measurement": "Free Terpene (hr)", "setting": "[3]; 37 ° C., SAF 100 mg/ml, emulsion 1050 μl L-carvone or 788 μl Citral, 9 hr", "result": "−"}, {"measurement": "Free Terpene (hr)", "setting": "[3]; 37 ° C., SAF 100 mg/ml, emulsion 1050 μl L-carvone or 788 μl Citral, 24 hr", "result": "−"}, {"measurement": "Free Terpene (hr)", "setting": "[3]; Rt, Bakers 250 mg/ml, emulsion 788 μl L-carvone or 525 μl Citral, 1 hr", "result": "+"}, {"measurement": "Free Terpene (hr)", "setting": "[3]; Rt, Bakers 250 mg/ml, emulsion 788 μl L-carvone or 525 μl Citral, 3 hr", "result": "−"}, {"measurement": "Free Terpene (hr)", "setting": "[3]; Rt, Bakers 250 mg/ml, emulsion 788 μl L-carvone or 525 μl Citral, 6 hr", "result": "−"}, {"measurement": "Free Terpene (hr)", "setting": "[3]; Rt, Bakers 250 mg/ml, emulsion 788 μl L-carvone or 525 μl Citral, 9 hr", "result": "−"}, {"measurement": "Free Terpene (hr)", "setting": "[3]; Rt, Bakers 250 mg/ml, emulsion 788 μl L-carvone or 525 μl Citral, 24 hr", "result": "−"}, {"measurement": "Free Terpene (hr)", "setting": "[3]; Rt, Nutrex 100 mg/ml, emulsion 1050 μl L-carvone or 788 μl Citral, 1 hr", "result": "+"}, {"measurement": "Free Terpene (hr)", "setting": "[3]; Rt, Nutrex 100 mg/ml, emulsion 1050 μl L-carvone or 788 μl Citral, 3 hr", "result": "−"}, {"measurement": "Free Terpene (hr)", "setting": "[3]; Rt, Nutrex 100 mg/ml, emulsion 1050 μl L-carvone or 788 μl Citral, 6 hr", "result": "−"}, {"measurement": "Free Terpene (hr)", "setting": "[3]; Rt, Nutrex 100 mg/ml, emulsion 1050 μl L-carvone or 788 μl Citral, 9 hr", "result": "−"}, {"measurement": "Free Terpene (hr)", "setting": "[3]; Rt, Nutrex 100 mg/ml, emulsion 1050 μl L-carvone or 788 μl Citral, 24 hr", "result": "−"}, {"measurement": "Free Terpene (hr)", "setting": "[3]; Rt, SAF 100 mg/ml, emulsion 1050 μl L-carvone or 788 μl Citral, 1 hr", "result": "+"}, {"measurement": "Free Terpene (hr)", "setting": "[3]; Rt, SAF 100 mg/ml, emulsion 1050 μl L-carvone or 788 μl Citral, 3 hr", "result": "−"}, {"measurement": "Free Terpene (hr)", "setting": "[3]; Rt, SAF 100 mg/ml, emulsion 1050 μl L-carvone or 788 μl Citral, 6 hr", "result": "−"}, {"measurement": "Free Terpene (hr)", "setting": "[3]; Rt, SAF 100 mg/ml, emulsion 1050 μl L-carvone or 788 μl Citral, 9 hr", "result": "−"}, {"measurement": "Free Terpene (hr)", "setting": "[3]; Rt, SAF 100 mg/ml, emulsion 1050 μl L-carvone or 788 μl Citral, 24 hr", "result": "−"}]}]}
